Activity calls are given as the source filed them. The rule behind the calls is not given here.
Key:
[1] = Antiproliferative activity against human p53-null HCT116 cells assessed as growth inhibition after 72 hrs by MTT assay; format: functional, cell-based; details: HCT-116, 72 h
[2] = Antiproliferative activity against human HCT116 cells expressing wild type p53 assessed as growth inhibition after 72 hrs by MTT assay; format: functional, cell-based; details: HCT-116, 72 h
MCF7 = test: Antiproliferative activity against human MCF7 cells assessed as growth inhibition after 72 hrs by MTT assay; format: functional, cell-based; details: MCF7, 72 h
[3] = biological target: Hypoxia-inducible factor 1-alpha (Homo sapiens) (UniProt Q16665); test: Inhibition of HIF-1 (unknown origin) expressed in human MCF7 cells co-transfected with hypoxia reporter plasmid p(HRE)3-Luc at 20 uM measured under hypoxia condition after 24 hrs by dual-luciferase reporter assay; format: cell-based
[4] = Antiproliferative activity against human MDA-MB-435S cells assessed as growth inhibition after 72 hrs by MTT assay; format: functional, cell-based
[5] = Decrease in procaspase-3 expression level in human p53-null HCT116 -/- cells at 10 uM after 24 hrs by western blot analysis; format: functional, cell-based; details: HCT-116
[6] = Decrease in procaspase-9 expression level in human p53-null HCT116 -/- cells at 10 uM after 24 hrs by western blot analysis; format: functional, cell-based; details: HCT-116

Hypoxia-inducible factor 1-alpha (Homo sapiens), sequence (Q16665 whole entry, looked up): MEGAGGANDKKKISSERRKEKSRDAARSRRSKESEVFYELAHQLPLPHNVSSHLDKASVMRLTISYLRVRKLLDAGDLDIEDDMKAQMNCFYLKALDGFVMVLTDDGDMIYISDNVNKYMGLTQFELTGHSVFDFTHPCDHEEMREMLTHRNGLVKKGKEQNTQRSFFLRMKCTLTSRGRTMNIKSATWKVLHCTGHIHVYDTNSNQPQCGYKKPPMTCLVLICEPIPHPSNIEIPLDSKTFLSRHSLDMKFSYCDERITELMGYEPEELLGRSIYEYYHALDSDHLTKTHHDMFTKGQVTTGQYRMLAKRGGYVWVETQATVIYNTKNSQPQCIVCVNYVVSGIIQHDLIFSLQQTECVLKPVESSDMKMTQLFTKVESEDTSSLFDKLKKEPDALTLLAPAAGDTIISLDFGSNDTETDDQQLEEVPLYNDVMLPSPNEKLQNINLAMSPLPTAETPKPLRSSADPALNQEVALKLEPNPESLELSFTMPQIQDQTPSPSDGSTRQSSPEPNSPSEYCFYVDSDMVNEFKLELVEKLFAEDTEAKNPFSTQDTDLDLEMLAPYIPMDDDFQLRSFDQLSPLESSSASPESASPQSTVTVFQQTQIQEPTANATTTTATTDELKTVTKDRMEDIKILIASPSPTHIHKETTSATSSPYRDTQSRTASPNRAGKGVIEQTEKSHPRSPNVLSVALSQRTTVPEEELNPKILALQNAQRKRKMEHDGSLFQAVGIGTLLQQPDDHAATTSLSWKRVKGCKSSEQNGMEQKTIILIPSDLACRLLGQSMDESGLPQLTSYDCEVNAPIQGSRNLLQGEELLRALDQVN

IC50 (MCF7) [µM] | inhibition [3] [%] | Compound | IC50 [1] [µM] | IC50 [2] [µM] | IC50 [4] [µM] | inhibition [5] | inhibition [6]
– | – | CCOC(=O)c1oc2ccc(N(Cc3ccccc3)S(=O)(=O)c3ccc(F)cc3)cc2c1C | 33.1 | 5.82 | – | – | –
– | – | CCOC(=O)c1oc2ccc(N(Cc3ccc(Br)cc3)S(=O)(=O)c3ccc(Br)cc3)cc2c1C | 5.22 | 10.9 | – | – | –
– | – | CCOC(=O)c1oc2ccc(N(Cc3ccccc3)S(=O)(=O)c3ccc(Cl)cc3)cc2c1C | 23.2 | 4.86 | – | – | –
31.8 | 32.3 | Cc1c(C(=O)NCCCn2ccnc2)oc2ccc(N(Cc3ccccc3)S(=O)(=O)c3ccc(Cl)cc3)cc12 | 5 | 17.1 | 5.6 | – | –
– | – | Cc1c(C(=O)O)oc2ccc(N(Cc3ccc(Br)cc3)S(=O)(=O)c3ccc(Br)cc3)cc12 | > 40 | 8.58 | – | – | –
– | – | CCOC(=O)c1oc2ccc(N(Cc3ccccc3)S(=O)(=O)c3ccc(OC)cc3)cc2c1C | > 40 | > 40 | – | – | –
– | – | COc1ccc(N(Cc2ccccc2)S(=O)(=O)c2ccc(Cl)cc2)cc1 | > 40 | 18.3 | – | – | –
– | – | CCOC(=O)c1oc2ccc(N(C(C)C)S(=O)(=O)c3ccc(Cl)cc3)cc2c1C | > 40 | 7.83 | – | – | –
– | – | CCOC(=O)c1oc2ccc(N(Cc3ccccc3)S(=O)(=O)c3ccc(C)cc3)cc2c1C | > 40 | > 40 | – | – | –
– | – | CCOC(=O)c1oc2ccc(N(CC3CCCCC3)S(=O)(=O)c3ccc(Cl)cc3)cc2c1C | > 40 | 14.1 | – | – | –
– | – | CCOC(=O)c1oc2ccc(N(Cc3ccccc3)S(=O)(=O)c3ccccc3Br)cc2c1C | > 40 | > 40 | – | – | –
5.01 | < 10 | COc1ccc(C2=N[C@@H](c3ccc(Cl)cc3)[C@@H](c3ccc(Cl)cc3)N2C(=O)N2CCNC(=O)C2)c(OC(C)C)c1 [NUTLIN-3] | 21.5 | 5.21 | 29.6 | inactive | inactive
– | – | CCOC(=O)c1oc2ccc(NS(=O)(=O)c3ccc(Cl)cc3)cc2c1C | > 40 | 24.3 | – | – | –
– | – | Cc1c(C(=O)O)oc2ccc(N(Cc3ccccc3)S(=O)(=O)c3ccc(F)cc3)cc12 | > 40 | > 40 | – | – | –
– | – | CCOC(=O)c1oc2ccc(NS(=O)(=O)c3ccc(Br)cc3)cc2c1C | > 40 | 9.31 | – | – | –
– | – | Cc1c(C(=O)O)oc2ccc(N(Cc3ccccc3)S(=O)(=O)c3ccc(Cl)cc3)cc12 | 33.4 | 9.13 | – | – | –

IC50 (MCF7) [µM] | inhibition [3] [%] | Compound | IC50 [1] [µM] | IC50 [2] [µM] | IC50 [4] [µM] | inhibition [5] | inhibition [6]
– | – | CCOC(=O)c1oc2ccc(N(Cc3ccccc3)S(=O)(=O)c3cccc(Br)c3)cc2c1C | > 40 | > 40 | – | – | –
– | – | Cc1c(C(=O)O)oc2ccc(N(Cc3ccccc3)S(=O)(=O)c3ccc(Br)cc3)cc12 | 20 | 7.09 | – | – | –
– | – | CCOC(=O)c1oc2ccc(N(Cc3ccccc3)S(=O)(=O)c3ccccc3)cc2c1C | > 40 | > 40 | – | – | –
– | – | CCOC(=O)c1oc2ccc(N(Cc3ccccc3)S(=O)(=O)c3ccc([N+](=O)[O-])cc3)cc2c1C | > 40 | > 40 | – | – | –
– | – | Cc1c(C(=O)O)oc2ccc(N(Cc3ccccc3)S(=O)(=O)c3ccc(C(F)(F)F)cc3)cc12 | 21.1 | 4.13 | – | – | –
> 40 | 27 | Cc1c(C(=O)NCCCn2ccnc2)oc2ccc(N(Cc3ccc(Cl)cc3)S(=O)(=O)c3ccc(Cl)cc3)cc12 | 1.89 | 2.43 | 7.25 | – | –
– | – | CCOC(=O)c1oc2ccc(NS(=O)(=O)c3ccc(C(F)(F)F)cc3)cc2c1C | 24.2 | 5.03 | – | – | –
5.84 | 12.7 | Cc1c(C(=O)NCCN(C)C)oc2ccc(N(Cc3ccc(Cl)cc3)S(=O)(=O)c3ccc(Cl)cc3)cc12 | 3.87 | 5.38 | 10.8 | – | –
– | – | Cc1c(C(=O)O)oc2ccc(N(Cc3ccc(Cl)cc3)S(=O)(=O)c3ccc(Cl)cc3)cc12 | 27.2 | 3.67 | – | – | –
– | – | CCOC(=O)c1oc2ccc(N(Cc3ccccc3)S(=O)(=O)c3cccc(Cl)c3)cc2c1C | > 40 | > 40 | – | – | –
– | – | CCOC(=O)c1oc2ccc(N(Cc3ccccc3)S(=O)(=O)c3ccc(Br)cc3)cc2c1C | 8.7 | 9.46 | – | – | –
– | – | CCOC(=O)c1oc2ccc(N(Cc3ccc(Cl)cc3)S(=O)(=O)c3ccc(Cl)cc3)cc2c1C | 9.64 | 9.48 | – | – | –
– | – | CCOC(=O)c1oc2ccc(NS(=O)(=O)c3ccc(F)cc3)cc2c1C | > 40 | 10.5 | – | – | –
– | – | CCOC(=O)c1oc2ccc(N(Cc3ccccc3)S(=O)(=O)c3ccc(C(F)(F)F)cc3)cc2c1C | 12.7 | 26.7 | – | – | –
6.72 | < 10 | Cc1c(C(=O)NCCN(C)C)oc2ccc(N(Cc3ccccc3)S(=O)(=O)c3ccc(Cl)cc3)cc12 | 6.31 | 7.06 | 9.24 | – | –
